Source: PubChem BioAssay (NCI)
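The concentration for 50% growth inhibition is given as GI50. At the TGI there is no net growth.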

Key:
Experiment in all cases: NCI anticancer screen, dose series, 384-well format; in the data active = GI50 below about 0.43 µM; inactive = the rest
HL-60(TB) leukemia = tested on: HL-60(TB) leukemia
MDA-MB-231 breast = tested on: MDA-MB-231 breast
HCT-15 colon = tested on: HCT-15 colon
KM12 colon = tested on: KM12 colon
SF-539 CNS = tested on: SF-539 CNS
T-47D breast = tested on: T-47D breast
UACC-62 melanoma = tested on: UACC-62 melanoma
CCRF-CEM leukemia = tested on: CCRF-CEM leukemia
HCT-116 colon = tested on: HCT-116 colon
ACHN renal = tested on: ACHN renal
NCI/ADR-RES ovarian = tested on: NCI/ADR-RES ovarian
NCI-H226 lung = tested on: NCI-H226 lung
SF-295 CNS = tested on: SF-295 CNS
NCI-H23 lung = tested on: NCI-H23 lung
MDA-MB-468 breast = tested on: MDA-MB-468 breast
LOX IMVI melanoma = tested on: LOX IMVI melanoma
SK-MEL-28 melanoma = tested on: SK-MEL-28 melanoma
UACC-257 melanoma = tested on: UACC-257 melanoma
MOLT-4 leukemia = tested on: MOLT-4 leukemia
HS 578T breast = tested on: HS 578T breast
DU-145 prostate = tested on: DU-145 prostate
SW-620 colon = tested on: SW-620 colon
OVCAR-3 ovarian = tested on: OVCAR-3 ovarian
COLO 205 colon = tested on: COLO 205 colon
SR leukemia = tested on: SR leukemia
OVCAR-4 ovarian = tested on: OVCAR-4 ovarian
OVCAR-8 ovarian = tested on: OVCAR-8 ovarian
MCF7 breast = tested on: MCF7 breast
UO-31 renal = tested on: UO-31 renal
M14 melanoma = tested on: M14 melanoma
SF-268 CNS = tested on: SF-268 CNS
786-0 renal = tested on: 786-0 renal
NCI-H522 lung = tested on: NCI-H522 lung
SNB-75 CNS = tested on: SNB-75 CNS
PC-3 prostate = tested on: PC-3 prostate
U251 glioblastoma = tested on: U251 glioblastoma
NCI-H322M lung = tested on: NCI-H322M lung
SNB-19 CNS = tested on: SNB-19 CNS
TK-10 renal = tested on: TK-10 renal
RXF 393 renal = tested on: RXF 393 renal
OVCAR-5 ovarian = tested on: OVCAR-5 ovarian
CAKI-1 renal = tested on: CAKI-1 renal
SN12C renal = tested on: SN12C renal
HOP-92 NSCLC = tested on: HOP-92 NSCLC
SK-MEL-5 melanoma = tested on: SK-MEL-5 melanoma
MALME-3M melanoma = tested on: MALME-3M melanoma
EKVX NSCLC = tested on: EKVX NSCLC
HT29 colon = tested on: HT29 colon
HCC-2998 colon = tested on: HCC-2998 colon
SK-OV-3 ovarian = tested on: SK-OV-3 ovarian
MDA-MB-435 melanoma = tested on: MDA-MB-435 melanoma
IGROV1 ovarian = tested on: IGROV1 ovarian
HOP-62 NSCLC = tested on: HOP-62 NSCLC
NCI-H460 NSCLC = tested on: NCI-H460 NSCLC
RPMI-8226 leukemia = tested on: RPMI-8226 leukemia
BT-549 breast = tested on: BT-549 breast
A498 renal = tested on: A498 renal
A549 NSCLC = tested on: A549 NSCLC

CNC(=O)c1c(C)oc2cc(Oc3ncnc4cc(OC)c(OC)cc34)ccc12
inactive: GI50 (HL-60(TB) leukemia) > 100 µM | GI50 (MDA-MB-231 breast) > 100 µM | GI50 (HCT-15 colon) > 100 µM | GI50 (KM12 colon) > 100 µM | GI50 (SF-539 CNS) 10.2 µM | GI50 (T-47D breast) > 100 µM | GI50 (UACC-62 melanoma) > 100 µM | GI50 (CCRF-CEM leukemia) > 100 µM | GI50 (HCT-116 colon) > 100 µM | GI50 (ACHN renal) > 100 µM | GI50 (NCI/ADR-RES ovarian) > 100 µM | GI50 (SF-295 CNS) > 100 µM | GI50 (NCI-H23 lung) > 100 µM | GI50 (MDA-MB-468 breast) > 100 µM | GI50 (LOX IMVI melanoma) > 100 µM | GI50 (SK-MEL-28 melanoma) > 100 µM | GI50 (UACC-257 melanoma) > 100 µM | GI50 (MOLT-4 leukemia) > 87.1 µM | GI50 (HS 578T breast) 25.5 µM | GI50 (DU-145 prostate) > 100 µM | GI50 (SW-620 colon) > 100 µM | GI50 (OVCAR-3 ovarian) > 100 µM | GI50 (COLO 205 colon) > 100 µM | GI50 (SR leukemia) > 61.5 µM | GI50 (OVCAR-4 ovarian) > 100 µM | GI50 (OVCAR-8 ovarian) > 100 µM | GI50 (MCF7 breast) > 100 µM | GI50 (UO-31 renal) > 96.2 µM | GI50 (M14 melanoma) > 100 µM | GI50 (SF-268 CNS) > 100 µM | GI50 (786-0 renal) > 100 µM | GI50 (NCI-H522 lung) > 100 µM | GI50 (SNB-75 CNS) 4.3 µM | GI50 (PC-3 prostate) > 100 µM | GI50 (U251 glioblastoma) > 100 µM | GI50 (NCI-H322M lung) > 100 µM | GI50 (SNB-19 CNS) > 100 µM | GI50 (TK-10 renal) > 100 µM | GI50 (RXF 393 renal) > 21.9 µM | GI50 (OVCAR-5 ovarian) > 100 µM | GI50 (CAKI-1 renal) > 100 µM | GI50 (SN12C renal) > 100 µM | GI50 (HOP-92 NSCLC) > 87.5 µM | GI50 (SK-MEL-5 melanoma) > 100 µM | GI50 (MALME-3M melanoma) > 100 µM | GI50 (EKVX NSCLC) > 100 µM | GI50 (HT29 colon) > 100 µM | GI50 (HCC-2998 colon) > 100 µM | GI50 (SK-OV-3 ovarian) > 100 µM | GI50 (MDA-MB-435 melanoma) > 100 µM | GI50 (IGROV1 ovarian) > 100 µM | GI50 (HOP-62 NSCLC) > 100 µM | GI50 (NCI-H460 NSCLC) > 100 µM | GI50 (RPMI-8226 leukemia) > 71.1 µM | GI50 (BT-549 breast) 11.5 µM | GI50 (A498 renal) > 100 µM | GI50 (A549 NSCLC) > 100 µM
> 29.4 µM: TGI (SNB-75 CNS)
> 100 µM: TGI (HL-60(TB) leukemia) | TGI (MDA-MB-231 breast) | TGI (HCT-15 colon) | TGI (KM12 colon) | TGI (SF-539 CNS) | TGI (T-47D breast) | TGI (UACC-62 melanoma) | TGI (CCRF-CEM leukemia) | TGI (HCT-116 colon) | TGI (ACHN renal) | TGI (NCI/ADR-RES ovarian) | TGI (NCI-H226 lung) | TGI (SF-295 CNS) | TGI (NCI-H23 lung) | TGI (MDA-MB-468 breast) | TGI (LOX IMVI melanoma) | TGI (SK-MEL-28 melanoma) | TGI (UACC-257 melanoma) | TGI (MOLT-4 leukemia) | TGI (HS 578T breast) | TGI (DU-145 prostate) | TGI (SW-620 colon) | TGI (OVCAR-3 ovarian) | TGI (COLO 205 colon) | TGI (SR leukemia) | TGI (OVCAR-4 ovarian) | TGI (OVCAR-8 ovarian) | TGI (MCF7 breast) | TGI (UO-31 renal) | TGI (M14 melanoma) | TGI (SF-268 CNS) | TGI (786-0 renal) | TGI (NCI-H522 lung) | TGI (PC-3 prostate) | TGI (U251 glioblastoma) | TGI (NCI-H322M lung) | TGI (SNB-19 CNS) | TGI (TK-10 renal) | TGI (RXF 393 renal) | TGI (OVCAR-5 ovarian) | TGI (CAKI-1 renal) | TGI (SN12C renal) | TGI (HOP-92 NSCLC) | TGI (SK-MEL-5 melanoma) | TGI (MALME-3M melanoma) | TGI (EKVX NSCLC) | TGI (HT29 colon) | TGI (HCC-2998 colon) | TGI (SK-OV-3 ovarian) | TGI (MDA-MB-435 melanoma) | TGI (IGROV1 ovarian) | TGI (HOP-62 NSCLC) | TGI (NCI-H460 NSCLC) | TGI (RPMI-8226 leukemia) | TGI (BT-549 breast) | TGI (A498 renal) | TGI (A549 NSCLC)
